Results: PubChem BioAssay (NCI)
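Method: 48-hour compound exposure of cells in 96-well plates, five concentrations, linear interpolation of endpoints. TGI denotes the concentration required for complete inhibition of growth.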

Tests used:
Test in all cases: DTP human tumour cell line panel, 48 h
[1] = tested on: 786-0 renal
[2] = tested on: A498 renal
[3] = tested on: A549 NSCLC
[4] = tested on: ACHN renal
[5] = tested on: BT-549 breast
[6] = tested on: CAKI-1 renal
[7] = tested on: CCRF-CEM leukemia
[8] = tested on: COLO 205 colon
[9] = tested on: DU-145 prostate
[10] = tested on: EKVX NSCLC
[11] = tested on: HCC-2998 colon
[12] = tested on: HCT-116 colon
[13] = tested on: HCT-15 colon
[14] = tested on: HOP-62 NSCLC
[15] = tested on: HOP-92 NSCLC
[16] = tested on: HT29 colon
[17] = tested on: IGROV1 ovarian
[18] = tested on: K-562 leukemia
[19] = tested on: KM12 colon
[20] = tested on: LOX IMVI melanoma
[21] = tested on: M14 melanoma
[22] = tested on: MALME-3M melanoma
[23] = tested on: MCF7 breast
[24] = tested on: MDA-MB-231 breast
[25] = tested on: MDA-MB-435
[26] = tested on: MDA-N
[27] = tested on: MOLT-4 leukemia
[28] = tested on: NCI-H226 lung
[29] = tested on: NCI-H23 lung
[30] = tested on: NCI-H460 lung
[31] = tested on: NCI-H522 lung
[32] = tested on: NCI/ADR-RES ovarian
[33] = tested on: OVCAR-3 ovarian
[34] = tested on: OVCAR-4 ovarian
[35] = tested on: OVCAR-5 ovarian
[36] = tested on: OVCAR-8 ovarian
[37] = tested on: PC-3 prostate
[38] = tested on: RPMI-8226 leukemia
[39] = tested on: RXF 393 renal
[40] = tested on: SF-268 CNS
[41] = tested on: SF-295 CNS
[42] = tested on: SF-539 CNS
[43] = tested on: SK-MEL-2 melanoma
[44] = tested on: SK-MEL-28 melanoma
[45] = tested on: SK-MEL-5 melanoma
[46] = tested on: SK-OV-3 ovarian
[47] = tested on: SN12C renal
[48] = tested on: SNB-19 CNS
[49] = tested on: SR leukemia
[50] = tested on: SW-620 colon
[51] = tested on: T-47D breast
[52] = tested on: TK-10 renal
[53] = tested on: U251 CNS
[54] = tested on: UACC-257 melanoma
[55] = tested on: UACC-62 melanoma
[56] = tested on: UO-31 renal

Question: Which TGI [1] does the source give for `COc1cc2c(cc1OCCCN1C(=O)c3cccc4cccc(c34)C1=O)N=C[C@@H]1CCCN1C2=O` here?
Answer: Its TGI is 54.3 µM.

Question: And the TGI [2]?
Answer: Its TGI is greater than 100 µM.

Question: And the TGI [3]?
Answer: The TGI was greater than 100 µM.

Question: And the TGI [4]?
Answer: The TGI was greater than 63.4 µM.

Question: What about the TGI [5] of the same molecule?
Answer: Its TGI is greater than 100 µM.

Question: What about the TGI [6] of the same molecule?
Answer: The TGI was greater than 58.1 µM.

Question: And the TGI [7]?
Answer: Its TGI is 22.2 µM.

Question: What about the TGI [8] of the same molecule?
Answer: The TGI was 40.6 µM.

Question: And the TGI [9]?
Answer: The TGI was greater than 100 µM.

Question: What about the TGI [10] of the same molecule?
Answer: The TGI was greater than 100 µM.

Question: What about the TGI [11] of the same molecule?
Answer: Its TGI is greater than 100 µM.

Question: What about the TGI [12] of the same molecule?
Answer: The TGI was greater than 100 µM.

Question: What about the TGI [13] of the same molecule?
Answer: Its TGI is greater than 77.9 µM.

Question: And the TGI [14]?
Answer: The TGI was greater than 100 µM.

Question: And the TGI [15]?
Answer: Its TGI is greater than 58.2 µM.

Question: What about the TGI [16] of the same molecule?
Answer: Its TGI is greater than 100 µM.

Question: What about the TGI [17] of the same molecule?
Answer: Its TGI is 31.5 µM.

Question: What about the TGI [18] of the same molecule?
Answer: Its TGI is greater than 80.5 µM.

Question: What about the TGI [19] of the same molecule?
Answer: Its TGI is greater than 49.8 µM.

Question: And the TGI [20]?
Answer: The TGI was greater than 100 µM.

Question: And the TGI [21]?
Answer: The TGI was greater than 100 µM.

Question: What about the TGI [22] of the same molecule?
Answer: Its TGI is 35.1 µM.

Question: What about the TGI [23] of the same molecule?
Answer: The TGI was greater than 56.7 µM.

Question: What about the TGI [24] of the same molecule?
Answer: The TGI was greater than 100 µM.

Question: And the TGI [25]?
Answer: The TGI was greater than 100 µM.

Question: And the TGI [26]?
Answer: Its TGI is greater than 100 µM.

Question: What about the TGI [27] of the same molecule?
Answer: The TGI was greater than 65.4 µM.

Question: And the TGI [28]?
Answer: Its TGI is greater than 100 µM.

Question: And the TGI [29]?
Answer: The TGI was greater than 100 µM.

Question: And the TGI [30]?
Answer: Its TGI is greater than 100 µM.

Question: What about the TGI [31] of the same molecule?
Answer: The TGI was 27.9 µM.

Question: What about the TGI [32] of the same molecule?
Answer: Its TGI is greater than 100 µM.

Question: And the TGI [33]?
Answer: Its TGI is greater than 85.1 µM.

Question: And the TGI [34]?
Answer: Its TGI is greater than 81.4 µM.

Question: And the TGI [35]?
Answer: The TGI was greater than 100 µM.

Question: And the TGI [36]?
Answer: The TGI was greater than 100 µM.

Question: What about the TGI [37] of the same molecule?
Answer: The TGI was greater than 100 µM.

Question: What about the TGI [38] of the same molecule?
Answer: The TGI was greater than 50.2 µM.

Question: What about the TGI [39] of the same molecule?
Answer: The TGI was 34.2 µM.

Question: And the TGI [40]?
Answer: Its TGI is greater than 100 µM.

Question: And the TGI [41]?
Answer: The TGI was greater than 100 µM.

Question: And the TGI [42]?
Answer: Its TGI is greater than 100 µM.

Question: What about the TGI [43] of the same molecule?
Answer: The TGI was greater than 100 µM.

Question: And the TGI [44]?
Answer: Its TGI is greater than 100 µM.

Question: And the TGI [45]?
Answer: The TGI was greater than 63.6 µM.

Question: What about the TGI [46] of the same molecule?
Answer: The TGI was greater than 100 µM.

Question: What about the TGI [47] of the same molecule?
Answer: Its TGI is greater than 100 µM.

Question: And the TGI [48]?
Answer: The TGI was greater than 100 µM.

Question: And the TGI [49]?
Answer: The TGI was 25.5 µM.

Question: And the TGI [50]?
Answer: Its TGI is greater than 63 µM.

Question: And the TGI [51]?
Answer: Its TGI is greater than 100 µM.

Question: And the TGI [52]?
Answer: Its TGI is greater than 100 µM.

Question: And the TGI [53]?
Answer: The TGI was greater than 100 µM.

Question: And the TGI [54]?
Answer: Its TGI is greater than 100 µM.

Question: And the TGI [55]?
Answer: Its TGI is greater than 100 µM.

Question: And the TGI [56]?
Answer: The TGI was greater than 71 µM.
